# Data: ChEMBL document CHEMBL1131059, “Synthesis and biological activity of a new series of N6-arylcarbamoyl, 2-(Ar)alkynyl-N6-arylcarbamoyl, and N6-carboxamido derivatives of adenosine-5'-N-ethyluronamide as A1 and A3 adenosine receptor agonists” (J Med Chem, 1998)
# How the values were obtained:
# [1] = molecular target: Adenosine receptors; A1 & A3 (Rattus norvegicus) (UniProt P25099+P28647); assay: Selectivity for binding affinity towards A1 adenosine receptor in rat brain membrane and rat A3 receptor expressed in CHO cells.; assay type: cell-based
# Adenosine receptor A3 = molecular target: T1, Adenosine receptor A3 (Rattus norvegicus, UniProt P28647); assay: biochemical
# T1 sequence (P28647 whole entry): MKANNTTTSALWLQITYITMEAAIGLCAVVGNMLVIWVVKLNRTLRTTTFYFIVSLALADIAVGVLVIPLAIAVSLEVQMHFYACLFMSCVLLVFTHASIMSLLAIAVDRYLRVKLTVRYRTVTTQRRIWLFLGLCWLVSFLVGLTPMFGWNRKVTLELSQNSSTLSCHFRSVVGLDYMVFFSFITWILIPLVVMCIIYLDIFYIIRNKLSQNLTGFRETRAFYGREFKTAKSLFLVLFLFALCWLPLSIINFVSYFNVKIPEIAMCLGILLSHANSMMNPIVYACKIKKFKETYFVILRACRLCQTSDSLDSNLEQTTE
# Description: Binding affinity against rat adenosine A3 receptor expressed in CHO cells using [125I]-.
# Adenosine receptor A1 = molecular target: T2, Adenosine receptor A1 (Rattus norvegicus, UniProt P25099)
# T2 sequence (P25099 whole entry): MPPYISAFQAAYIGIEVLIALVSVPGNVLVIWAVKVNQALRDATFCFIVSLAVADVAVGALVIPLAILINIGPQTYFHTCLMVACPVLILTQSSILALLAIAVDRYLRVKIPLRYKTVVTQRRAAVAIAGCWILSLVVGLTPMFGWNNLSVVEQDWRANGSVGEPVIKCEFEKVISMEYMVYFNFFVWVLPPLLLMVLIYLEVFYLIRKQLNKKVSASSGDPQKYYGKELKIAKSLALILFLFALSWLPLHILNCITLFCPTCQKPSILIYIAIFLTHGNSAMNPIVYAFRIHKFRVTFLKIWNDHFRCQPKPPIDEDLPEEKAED
# Description: Binding affinity against adenosine A1 receptor in rat brain membranes using [3H]R-PIA.
# Adenosine receptor A2a = Adenosine receptor A2a (Rattus norvegicus, UniProt P30543)
# Adenosine receptor A2a, sequence (P30543 whole entry): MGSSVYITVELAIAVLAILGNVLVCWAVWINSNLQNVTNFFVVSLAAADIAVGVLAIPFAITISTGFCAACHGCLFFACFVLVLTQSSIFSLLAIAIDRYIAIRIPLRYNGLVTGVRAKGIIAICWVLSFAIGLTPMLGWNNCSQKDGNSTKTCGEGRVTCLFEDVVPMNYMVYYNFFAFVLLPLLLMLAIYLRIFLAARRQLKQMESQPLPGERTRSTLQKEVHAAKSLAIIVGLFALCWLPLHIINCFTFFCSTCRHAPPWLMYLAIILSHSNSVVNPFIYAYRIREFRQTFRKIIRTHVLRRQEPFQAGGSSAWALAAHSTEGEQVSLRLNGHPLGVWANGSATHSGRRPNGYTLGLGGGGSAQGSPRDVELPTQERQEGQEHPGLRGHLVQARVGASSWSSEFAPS
# Description: Binding affinity against adenosine A2A receptor in rat striatal membranes using [3H]-CGS- 21680.
# [2] = molecular target: Adenosine receptor A2a (Rattus norvegicus) (UniProt P30543); assay: Binding affinity against Adenosine A2A receptor of rat striatal membranes using [3H]- CGS 21680 at 10E-4; details: concentration not given here
# Adenosine receptor A2a (Rattus norvegicus), sequence (P30543 whole entry): as above
Compound,Ratio [1],Ki (Adenosine receptor A3),Ki (Adenosine receptor A1),Ki (Adenosine receptor A2a),inhibition [2]
CCNC(=O)[C@H]1O[C@@H](n2cnc3c(NC(=O)N[C@H](C)c4ccccc4)ncnc32)[C@H](O)[C@@H]1O,27,–,–,–,–
CCCCC#Cc1nc(NC(=O)Nc2ccc(OC)cc2)c2ncn([C@@H]3O[C@H](C(=O)NCC)[C@@H](O)[C@H]3O)c2n1,2,211 nM,428 nM,2330 nM,–
CCNC(=O)[C@H]1O[C@@H](n2cnc3c(NC(=O)Nc4ccc(OC)cc4)nc(C#Cc4ccccc4)nc32)[C@H](O)[C@@H]1O,31,154 nM,4790 nM,–,29%
CCNC(=O)[C@H]1O[C@@H](n2cnc3c(NC(=O)Nc4nncs4)ncnc32)[C@H](O)[C@@H]1O,0.037,–,–,–,–
CCNC(=O)[C@H]1O[C@@H](n2cnc3c(NC(=O)Nc4ccc(OC)cc4)nc(C#CC(O)c4ccccc4)nc32)[C@H](O)[C@@H]1O (stereo partly specified),0.23,324 nM,75.1 nM,–,12%
CCNC(=O)[C@H]1O[C@@H](n2cnc3c(NC(=O)Nc4cccc(Cl)c4)nc(I)nc32)[C@H](O)[C@@H]1O,0.33,315 nM,103 nM,10600 nM,–
CCCCC#Cc1nc(NC(=O)Nc2cccc(Cl)c2)c2ncn([C@@H]3O[C@H](C(=O)NCC)[C@@H](O)[C@H]3O)c2n1,3.5,581 nM,2040 nM,7130 nM,–
CCNC(=O)[C@H]1O[C@@H](n2cnc3c(N(C(=O)Nc4ccc(Cl)cn4)C(=O)Nc4ccc(Cl)cn4)ncnc32)[C@H](O)[C@@H]1O,0.13,–,–,–,–
CCNC(=O)[C@H]1O[C@@H](n2cnc3c(NC(=O)c4ccccc4Cl)ncnc32)[C@H](O)[C@@H]1O,1.6,754 nM,1170 nM,1960 nM,–
CCNC(=O)[C@H]1O[C@@H](n2cnc3c(NC(=O)Nc4ccc(OC)cc4)nc(C#CCCCc4ccccc4)nc32)[C@H](O)[C@@H]1O,160,89.5 nM,–,1670 nM,–
CCNC(=O)[C@H]1O[C@@H](n2cnc3c(NC(=O)Nc4cc(C)on4)ncnc32)[C@H](O)[C@@H]1O,0.27,–,–,–,–
CCNC(=O)[C@H]1O[C@@H](n2cnc3c(NC(=O)Cc4ccc(Cl)cc4Cl)ncnc32)[C@H](O)[C@@H]1O,0.095,–,–,–,–
CCNC(=O)[C@H]1O[C@@H](n2cnc3c(NC(=O)NCc4ccccc4)ncnc32)[C@H](O)[C@@H]1O,4.5,–,–,–,–
CNC(=O)[C@H]1OC(n2cnc3c(NCc4cccc(I)c4Cl)ncnc32)[C@H](O)[C@@H]1O (stereo partly specified),2500,0.33 nM,820 nM,470 nM,–
CCNC(=O)[C@H]1O[C@@H](n2cnc3c(NC(=O)NCCc4ccccc4)ncnc32)[C@H](O)[C@@H]1O,0.86,149 nM,129 nM,2650 nM,–
CCNC(=O)[C@H]1O[C@@H](n2cnc3c(NC(=O)Nc4ccc(OC)cc4)nc(I)nc32)[C@H](O)[C@@H]1O,0.12,251 nM,29.4 nM,260 nM,–

Compound,Ratio [1],Ki (Adenosine receptor A3),Ki (Adenosine receptor A1),Ki (Adenosine receptor A2a),inhibition [2]
CCNC(=O)[C@H]1O[C@@H](n2cnc3c(NC(=O)N[C@@H](C)c4ccccc4)ncnc32)[C@H](O)[C@@H]1O,1.7,–,–,–,–
CCNC(=O)[C@H]1O[C@@H](n2cnc3c(NC(=O)Nc4cccc(Cl)c4)nc(C#Cc4ccccc4)nc32)[C@H](O)[C@@H]1O,2.1,611 nM,1330 nM,48700 nM,–
CCNC(=O)[C@H]1O[C@@H](n2cnc3c(NC(=O)Nc4ccc(NS(=O)(=O)c5ncccn5)cc4)ncnc32)[C@H](O)[C@@H]1O,1.7,405 nM,725 nM,16.8 nM,–
CCNC(=O)[C@H]1O[C@@H](n2cnc3c(NC(=O)NCCc4ccc(OC)c(OC)c4)ncnc32)[C@H](O)[C@@H]1O,4.3,411 nM,1770 nM,1570 nM,–
CCNC(=O)[C@H]1O[C@@H](n2cnc3c(NC(=O)Nc4cccc(Cl)c4)nc(Cl)nc32)[C@H](O)[C@@H]1O,1.2,77.6 nM,90 nM,557 nM,–
CCNC(=O)[C@H]1O[C@@H](n2cnc3c(NC(=O)Nc4ccc(OC)cc4)nc(Cl)nc32)[C@H](O)[C@@H]1O,1.2,17.1 nM,22 nM,59 nM,–
CCNC(=O)[C@H]1O[C@@H](n2cnc3c(NC(=O)NCc4ccco4)ncnc32)[C@H](O)[C@@H]1O,0.58,713 nM,419 nM,1860 nM,–
CCNC(=O)[C@H]1O[C@@H](n2cnc3c(NC(=O)c4ccccc4)ncnc32)[C@H](O)[C@@H]1O,0.3,–,–,–,–
CCNC(=O)[C@H]1O[C@@H](n2cnc3c(NC(=O)c4ccc(-c5ccccc5)cc4)ncnc32)[C@H](O)[C@@H]1O,0.006,–,–,–,–
CCNC(=O)[C@H]1OC(n2cnc3c(NC(=O)Nc4ccc(NS(=O)(=O)c5cc(C)on5)cc4)ncnc32)[C@H](O)[C@@H]1O (stereo partly specified),5.8,155 nM,901 nM,977 nM,–
CCNC(=O)[C@H]1O[C@@H](n2cnc3c(NC(=O)Nc4ccc(S(N)(=O)=O)cc4)ncnc32)[C@H](O)[C@@H]1O,47,–,–,–,–
CCNC(=O)[C@H]1O[C@@H](n2cnc3c(NC(=O)Nc4ccc(C(C)=O)cc4)ncnc32)[C@H](O)[C@@H]1O,3.5,–,–,–,–
CCNC(=O)[C@H]1O[C@@H](n2cnc3c(NC(=O)Nc4cccc(Cl)c4)nc(C#CC(O)c4ccccc4)nc32)[C@H](O)[C@@H]1O (stereo partly specified),1.2,696 nM,814 nM,–,12%
CCCOc1ccc(NC(=O)Nc2ncnc3c2ncn3C2O[C@H](C(=O)NCC)[C@@H](O)[C@H]2O)cc1 (stereo partly specified),2.3,107 nM,247 nM,255 nM,–
CCNC(=O)[C@H]1O[C@@H](n2cnc3c(NC(=O)Nc4ccc(NS(=O)(=O)c5ccccn5)cc4)ncnc32)[C@H](O)[C@@H]1O,5.4,54.1 nM,292 nM,740 nM,–
CCNC(=O)[C@H]1O[C@@H](n2cnc3c(NC(=O)c4ccc(OC)cc4)ncnc32)[C@H](O)[C@@H]1O,0.1,–,–,–,–
